Assay results as given in patent US10160762B2, “6-alkyl dihydropyrazolopyrimidinone compounds as PDE2 inhibitors” (Merck Sharp & Dohme Corp., priority 2015, dated 2018).

Each compound was assayed against T1, Rhesus PDE2A3 (Macaca mulatta, UniProt B3VTJ2) (assay: PDE2 fluorescence polarization (IMAP FP) inhibition assay, rhesus PDE2A3). Details: Lab A; read-out: Rhesus PDE2 Ki (nM) Lab A.
T1 construct: made in house; host or cells: AD293 cells, transient transfection; supernatant of sonicated lysate
T1 sequence (B3VTJ2 1-941): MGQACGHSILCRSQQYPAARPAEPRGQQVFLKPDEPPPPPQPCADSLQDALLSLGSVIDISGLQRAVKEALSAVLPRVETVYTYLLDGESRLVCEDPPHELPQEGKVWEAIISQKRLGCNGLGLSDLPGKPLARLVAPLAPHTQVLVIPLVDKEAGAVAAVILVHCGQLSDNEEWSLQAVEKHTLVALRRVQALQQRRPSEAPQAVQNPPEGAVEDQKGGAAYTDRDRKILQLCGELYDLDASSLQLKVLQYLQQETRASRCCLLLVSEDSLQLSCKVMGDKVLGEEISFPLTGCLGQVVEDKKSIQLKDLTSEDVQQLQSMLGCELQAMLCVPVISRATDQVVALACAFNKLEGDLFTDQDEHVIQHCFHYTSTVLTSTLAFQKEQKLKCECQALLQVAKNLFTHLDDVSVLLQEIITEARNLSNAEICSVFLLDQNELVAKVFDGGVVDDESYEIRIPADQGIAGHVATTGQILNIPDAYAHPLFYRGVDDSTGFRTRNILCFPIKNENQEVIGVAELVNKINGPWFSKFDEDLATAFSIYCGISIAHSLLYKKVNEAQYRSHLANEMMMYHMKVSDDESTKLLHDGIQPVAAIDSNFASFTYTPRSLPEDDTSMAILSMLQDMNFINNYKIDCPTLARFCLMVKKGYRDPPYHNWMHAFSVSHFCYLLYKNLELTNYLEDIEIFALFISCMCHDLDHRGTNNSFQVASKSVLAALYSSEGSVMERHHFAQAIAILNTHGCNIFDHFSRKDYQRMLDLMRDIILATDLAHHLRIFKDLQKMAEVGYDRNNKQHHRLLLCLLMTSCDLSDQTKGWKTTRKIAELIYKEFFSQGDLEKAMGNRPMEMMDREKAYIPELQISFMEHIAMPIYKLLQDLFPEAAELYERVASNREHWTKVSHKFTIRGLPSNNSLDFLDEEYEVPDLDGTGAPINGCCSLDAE
Type: biochemical, rhesus macaque
Description: The activity of the compounds in accordance with the present invention as PDE2 inhibitors may be readily determined using a fluorescence polarization (FP) methodology (Huang, W., et al., J. Biomol Screen, 2002, 7: 215).
The PDE2 inhibitory activity of the compounds of the present invention was determined in accordance with the following experimental method. Rhesus PDE2A3 was amplified from rhesus macaque brain cDNA (Biochain Institute, Hayward, Calif.) using primers based on human PDE2A sequence (accession NM_002599.3) where the forward primer containing a Kozak consensus was 5′-[…]-3′ and the reverse primer was 5′-[…]-3′. Amplification with Easy-A High-Fidelity PCR cloning enzyme (Stratagene, La Jolla, Calif.) was 95° C. for 2 minutes followed by thirty three cycles of 95° C. for 40 seconds, 52° C. for 30 seconds, and 72° C. for 2 minutes 48 seconds. Final extension was 72° C. for 7 minutes. The PCR product was TA cloned into pcDNA3.3-TOPO (Invitrogen, Carlsbad, Calif.) according to standard protocol. A consensus sequence was developed from multiple clones and then deposited into GenBank (EU812167). AD293 cells (Stratagene, La Jolla, Calif.) with 70-80% confluency were transiently transfected with rhesus PDE2A3/pcDNA3.3-TOPO using Lipofectamine 2000 according to manufacturer specifications (Invitrogen, Carlsbad, Calif.). Cells were harvested 48 hours post-transfection and lysed by sonication (setting 3, 10×5 sec pulses) in a buffer containing 20 mM HEPES pH 7.4, 1 mM EDTA and Complete Protease Inhibitor Cocktail Tablets (Roche, Indianapolis, Ind.). Lysate was collected by centrifugation at 75,000×g for 20 minutes at 4° C. and supernatant utilized for evaluation of PDE2 activity. The fluorescence polarization assay for cyclic nucleotide phosphodiesterases was performed using an IMAP® FP kit supplied by Molecular Devices, Sunnyvale, Calif. (product #R8139). […] Assays were performed at room temperature in 384-well microtiter plates with an incubation volume of 20.2 μL. Solutions of test compounds were prepared in DMSO and serially diluted with DMSO to yield 8 μL of each of 10 solutions differing by 3-fold in concentration, at 32 serial dilutions per plate. […] 0% of inhibition is determined by using DMSO (1% final concentrations).
A Labcyte Echo 555 (Labcyte, Sunnyvale, Calif.) is used to dispense 200 nL from each well of the titration plate to the 384 well assay plate. Ten microliters of a solution of enzyme (1/2000 final dilution from aliquots; sufficient to produce 20% substrate conversion) was added to the assay plate. Next 10 uL of a separate solution of the substrate FAM-labeled cAMP (50 nM final concentration product # R7506 from Molecular Devices) and the activator cGMP (1 uM final concentration), prepared in the assay buffer (10 mM Tris HCl, pH 7.2, 10 mM MgCl2, 0.05% NaN3 0.01% Tween-20, and 1 mM DTT) was added to the assay plate and shaken to mix. The reaction is allowed to proceed at room temperature for 60 minutes. A binding solution is then made from the kit components, comprised of 80% Solution A, 20% Solution B and binding reagent at a volume of 1/600 the total binding solution. The enzymatic reaction is stopped by addition of 60 μL of the binding solution to each well of the assay plates and the plates are sealed and shaken for 30 seconds. The plate was incubated at room temperature for at least one hour prior to determining the fluorescence polarization (FP). The parallel and perpendicular fluorescence of each well of the plate was measured using a Tecan Genios Pro plate reader (Tecan, Switzerland) or Perkin Elmer EnVision™ plate reader (Waltham, Mass.). Fluorescence polarization (mP) was calculated from the parallel (S) and perpendicular (P) fluorescence of each sample well and the analogous values for the median control well, containing only substrate (So and Po), using the following equation: Polarization(mP)=1000*(S/So−P/Po)/(S/So+P/Po).

Q: With `Cc1nn(C(C)c2ccc(C(F)(F)F)cc2)c2nc(C(C)O)[nH]c(=O)c12` (centres unmarked) [Example 29, 6-(1-Hydroxyethyl)-3-methyl-1-(1-(4-(trifluoromethyl)phenyl)ethyl)-1H-pyrazolo[3,4-d]pyrimidin-4(5H)-one] as the compound, how does the Ki read?
A: The Ki was 583 nM.

Q: How did the Ki turn out when `Cc1nn(C(C)c2ccc(C(F)(F)F)cc2)c2nc(CCC(=O)N(C)C)[nH]c(=O)c12` (centres unmarked) [Example 32, N,N-Dimethyl-3-(3-methyl-4-oxo-1-(1-(4-(trifluoromethyl)phenyl)ethyl)-4,5-dihydro-1H-pyrazolo[3,4-d]pyrimidin-6-yl)propanamide] was run?
A: Its Ki is 275 nM.

Same assay, conditions: Lab B; read-out: Rhesus PDE2 Ki (nM) Lab B

Q: Which Ki does the source give for `Cc1nc2c(c(CC(F)(F)F)nn2C(c2ccc(C(F)(F)F)cc2)C(C)(C)C)c(=O)[nH]1` (single isomer, unassigned) [Example 56, (R)- or (S)-1-(2,2-Dimethyl-1-(4-(trifluoromethyl)phenyl)propyl)-6-methyl-3-(2,2,2-trifluoroethyl)-1H-pyrazolo[3,4-d]pyrimidin-4(5H)-one] here?
A: Its Ki is 6020 nM.

Q: With `Cc1nc2c(c(CC(F)(F)F)nn2C(c2ccc(C(F)(F)F)cc2)C2(C)CC2)c(=O)[nH]1` (single isomer, unassigned) [Example 58, (R)- or (S)-6-Methyl-1-((1-methylcyclopropyl)(4-(trifluoromethyl)phenyl)methyl)-3-(2,2,2-trifluoroethyl)-1H-pyrazolo[3,4-d]pyrimidin-4(5H)-one] as the compound, how does the Ki read?
A: The Ki was 1080 nM.

Q: Which Ki does the source give for `Cc1nc2c(c(CO)nn2C(C)c2ccc(S(F)(F)(F)(F)F)cc2)c(=O)[nH]1` (single isomer, unassigned) [Example 76] here?
A: Its Ki is 330 nM.

Q: For `Cc1nc2c(c(CO)nn2C(c2ccc(C(F)(F)F)cc2)C(C)(C)C)c(=O)[nH]1` (single isomer, unassigned) [Example 82, (R)- or (S)-1-(2,2-Dimethyl-1-(4-(trifluoromethyl)phenyl)-propyl)-3-(hydroxymethyl)-6-methyl-1H-pyrazolo[3,4-d]pyrimidin-4(5H)-one], which Ki is on record?
A: Its Ki is 289 nM.

Q: Which Ki does the source give for `Cc1nc2c(c(CO)nn2C(c2ccc(C(F)(F)F)c(F)c2)C(C)C)c(=O)[nH]1` (single isomer, unassigned) [Example 86, (R)- or (S)-1-(1-(3-Fluoro-4-(trifluoromethyl)phenyl)-2-methylpropyl)-3-(hydroxymethyl)-6-methyl-1H-pyrazolo[3,4-d]pyrimidin-4(5H)-one] here?
A: Its Ki is 436 nM.

Q: With `Cc1nc2c(c(CO)nn2C(c2ccc(C(F)(F)F)c(F)c2)C(C)(C)C)c(=O)[nH]1` (single isomer, unassigned) [Example 128, (R)- or (S)-1-(1-(3-Fluoro-4-(trifluoromethyl)phenyl)-2,2-dimethylpropyl)-3-(hydroxyl-methyl)-6-methyl-1H-pyrazolo-[3,4-d]pyrimidin-4(5H)-one] as the compound, how does the Ki read?
A: The Ki was 413 nM.

Q: For `Cc1nc2c(c(C(F)F)nn2C(C)c2ccc(C(F)(F)F)cc2)c(=O)[nH]1` (single isomer, unassigned) [Example 175], which Ki is on record?
A: Its Ki is 419 nM.

Q: `Cc1nc2c(c(CF)nn2C(C)c2ccc(S(F)(F)(F)(F)F)cc2)c(=O)[nH]1` (single isomer, unassigned) [Example 199] was tested. Which Ki did it give?
A: The Ki was 210 nM.

Q: With `Cc1nc2c(c(CF)nn2C(c2ccc(C(F)(F)F)cc2)C2(C)CC2)c(=O)[nH]1` (single isomer, unassigned) [Example 208, (R)- or (S)-3-(Fluoromethyl)-6-methyl-1-((1-methylcyclopropyl)(4-(trifluoromethyl)phenyl)methyl)-1H-pyrazolo[3,4-d]pyrimidin-4(5H)-one] as the compound, how does the Ki read?
A: The Ki was 149 nM.

Q: Which Ki does the source give for `COc1ccc(Cc2nc3c(c(CF)nn3C(C)c3ccc(C(F)(F)F)cc3)c(=O)[nH]2)cc1` (single isomer, unassigned) [Example 218, (R)- or (S)-3-(Fluoromethyl)-6-(4-methoxybenzyl)-1-(1-(4-(trifluoromethyl)phenyl)ethyl)-1H-pyrazolo[3,4-d]pyrimidin-4(5H)-one] here?
A: Its Ki is 107 nM.

Q: `COc1cccc(Cc2nc3c(c(CF)nn3C(C)c3ccc(C(F)(F)F)cc3)c(=O)[nH]2)c1` (single isomer, unassigned) [Example 220, (R)- or (S)-3-(Fluoromethyl)-6-(3-methoxybenzyl)-1-(1-(4-(trifluoromethyl)phenyl)ethyl)-1H-pyrazolo[3,4-d]pyrimidin-4(5H)-one] was tested. Which Ki did it give?
A: Its Ki is 189 nM.

Q: How did the Ki turn out when `Cc1nc2c(c(CF)nn2C(c2ccc(C(F)(F)F)cc2)C(C)(C)C)c(=O)[nH]1` (single isomer, unassigned) [Example 233, (R)- or (S)-1-(2,2-Dimethyl-1-(4-(trifluoromethyl)phenyl)propyl)-3-(fluoromethyl)-6-methyl-1H-pyrazolo[3,4-d]pyrimidin-4(5H)-one] was run?
A: The Ki was 678 nM.

Q: With `Cc1nc2c(c(CCO)nn2C(C)c2ccc(C(F)(F)F)cc2)c(=O)[nH]1` (single isomer, unassigned) [Example 249] as the compound, how does the Ki read?
A: Its Ki is 245 nM.

Q: Which Ki does the source give for `Cc1nc2c(c(C#N)nn2C(C)c2ccc(C(F)(F)F)cc2)c(=O)[nH]1` (single isomer, unassigned) [Example 253] here?
A: The Ki was 703 nM.

Q: `Cc1nc2c(c(CS(C)(=O)=O)nn2C(C)c2ccc(C(F)(F)F)cc2)c(=O)[nH]1` (single isomer, unassigned) [Example 272] was tested. Which Ki did it give?
A: Its Ki is 1210 nM.

Q: For `Cc1nc2c(c(CS(C)(=O)=O)nn2C(C)c2ccc(C(F)(F)F)cc2)c(=O)[nH]1` (single isomer, unassigned) [Example 273], which Ki is on record?
A: The Ki was 757 nM.

Q: How did the Ki turn out when `Cc1nc2c(c(CN)nn2C(C)c2ccc(C(F)(F)F)cc2)c(=O)[nH]1` (single isomer, unassigned) [Example 274] was run?
A: Its Ki is about 14500 nM.

Q: With `Cc1nc2c(c(CN)nn2C(C)c2ccc(C(F)(F)F)cc2)c(=O)[nH]1` (single isomer, unassigned) [Example 275] as the compound, how does the Ki read?
A: Its Ki is 987 nM.

Q: Which Ki does the source give for `COCc1nn(C(C)c2ccc(C(F)(F)F)cc2)c2nc(C)[nH]c(=O)c12` (single isomer, unassigned) [Example 278] here?
A: The Ki was 768 nM.

Q: Which Ki does the source give for `COCc1nc2c(c(CO)nn2C(C)c2ccc(C(F)(F)F)cc2)c(=O)[nH]1` (single isomer, unassigned) [Example 292] here?
A: The Ki was 473 nM.

Q: For `Cc1nn(C(C)c2ccc(C(F)(F)F)cc2)c2nc(CCC(=O)N(C)C)[nH]c(=O)c12` (centres unmarked) [Example 32, N,N-Dimethyl-3-(3-methyl-4-oxo-1-(1-(4-(trifluoromethyl)phenyl)ethyl)-4,5-dihydro-1H-pyrazolo[3,4-d]pyrimidin-6-yl)propanamide], which Ki is on record?
A: Its Ki is 416 nM.
